# Assays:
# [1] = method code SF-HPLC, from DOI: 10.1016/s0223-5234(02)01360-0, PMID: 12008054; details: pH 7.4
# [2] = method code SF-AS, from PMID: 4096735; details: pH 7.4
# [3] = not given; remark: listed apart in the source
# [4] = not given; remark: listed apart in the source
# [5] = not given; remark: listed apart in the source
# [6] = method code SF-AS, from DOI: 10.1002/pauz.19770060602
# [7] = not given; remark: listed apart in the source
# [8] = not given; remark: listed apart in the source
# [9] = method code SF-HPLC, from DOI: 10.1211/0022357011778025, PMID: 11732751; details: pH 5.0
# [10] = method code SF-RC, from Godoy, N.; Valle, L.; Mena, P.; Gil, M. (1989). Synthesis, labeling and biodistribution of 99mTc-labelled bromoimino diacetic acids. Nucleotecnica, 9(17)25-32.
# [11] = not given; remark: listed apart in the source
# [12] = method code SF-RC, from DOI: 10.1016/j.bmcl.2015.05.048, PMID: 26073008; details: pH 7.4
# [13] = not given; remark: listed apart in the source
# [14] = not given; remark: listed apart in the source
# [15] = method code SF, from DOI: 10.1016/j.bmcl.2012.08.112, PMID: 23010264; details: pH 7.4
# [16] = method code SF, from DOI: 10.1007/bf02222191, PMID: 2473627
# [17] = method code SF, from DOI: 10.1021/jm00123a006, PMID: 2918500; details: pH 7.4
# [18] = not given; remark: listed apart in the source
# [19] = method code SF-RC, from DOI: 10.1002/jlcr.1930
# [20] = not given; remark: listed apart in the source
# [21] = method code SF-RC, from DOI: 10.1016/j.ejmech.2016.07.069, PMID: 27565554; details: pH 7.4
# [22] = method code SF-HPLC, from DOI: 10.1002/jps.23218, PMID: 22644947; details: pH 7.0
# [23] = not given; remark: listed apart in the source
# [24] = method code SF-RC, from DOI: 10.1111/j.2042-7158.1981.tb11724.x
# [25] = not given; remark: listed apart in the source
# [26] = method code SF, from DOI: 10.1111/j.1365-2958.1992.tb00853.x, PMID: 1640833
# [27] = method code SF-HPLC, from Liang, J.; Deng, J. (2011). Determination of n-octanol/wanter Partition Coefficient of Mangiferin. West China Journal of Pharmaceutical Sciences, 26(2)193-195.; details: pH 2.5
# [28] = method code SF-HPLC, from DOI: 10.1002/jps.2600830510, PMID: 8071813
# [29] = not given; remark: listed apart in the source
# [30] = method code G-RC, from DOI: 10.1016/0300-483x(85)90031-9, PMID: 4049435
# [31] = not given; remark: listed apart in the source
# [32] = method code SF-AS, from DOI: 10.1016/0048-3575(88)90061-2
# [33] = not given; remark: listed apart in the source
# [34] = method code SF, from DOI: 10.1021/bk-1995-0606.ch008
# [35] = method code SF-HPLC, from PMID: 11745753; details: pH 11.0
# [36] = from Kyomura, N., Fukuchi, T., Kohyama, Y., & Motojima, S. (1990). Biological characteristics of new acaricide MK-239. In Brighton Crop Protection Conference, Pests and Diseases - 1990 (Vol. 1, pp. …
# [37] = method code SF-AS, from DOI: 10.1021/jm00392a004, PMID: 3625703; details: pH 6.9
# [38] = not given; remark: listed apart in the source
# [39] = method code SF-HPLC, from DOI: 10.1016/j.ijpharm.2010.12.025, PMID: 21185925
smiles,measurement,setting,value
CN1CCN(CC(=O)N2c3ccccc3C(=O)Nc3cccnc32)CC1,logP,,0.1
COc1cc2nc(N3CCN(C(=O)C4CCCO4)CC3)nc(N)c2cc1OC (stereo not given),logD,[1],1.14
CCOC(=O)CCCCOc1ccc(-c2nc3c(N)nc(N)nc3nc2N)cc1,logD,[2],0.8
COc1cc2c(cc1O)CC[C@@H]1C2CC[C@]2(C)[C@@H](O)CC[C@@H]12 (stereo in doubt),logP,[3],2.86
Cc1ccccc1C(OCCN(C)C)c1ccccc1 (stereo not given),logP,[4],3.77
CC12CCC3c4ccc(O)cc4CCC3C1CC(F)C2O (stereo not given),logP,[5],2.98
O=C1CN=C(c2ccccc2)c2cc(Cl)ccc2N1CC1CC1,logP,[6],3.31
CNCCC=C1c2ccccc2CCc2ccccc21,logP,[7],4.4
CC(C)CC(O)C(O)C(CC1CCCCC1)NC(=O)OC(C)(C)C (stereo not given),logP,[8],3.98
CCN(CC)C(=O)C(C#N)=Cc1cc(OC(=O)C(C)(C)C)c(O)c([N+](=O)[O-])c1,logD,[9],2.24
CC(C)c1ccc(Br)c(C(C)C)c1NC(=O)CN(CC(=O)O)CC(=O)O,logP,[10],0.2
Cc1onc(-c2ccccc2)c1C(=O)NC1C(=O)N2C1SC(C)(C)C2C(=O)O (stereo not given),logP,[11],2.34
COc1ccc(/C=C/c2cc(=O)c3cc(I)ccc3o2)cc1OC,logD,[12],2.14
O=C(NN1C(=O)[C@@H]2[C@@H]3C=C[C@@H]([C@H]4C[C@@H]34)[C@@H]2C1=O)c1ccc(C(F)(F)F)cc1,logP,[13],2.36
CO[C@H]1C[C@]2(C)[C@@H](O)CC[C@H]2[C@@H]2CCc3cc(O)ccc3[C@H]21,logP,[14],2.72
COCC(C1CC1)n1cc(Cl)nc(Nc2cc(C)c(OC)cc2C)c1=O (stereo not given),logD,[15],4.4
CC(C)NCC(O)COc1ccccc1C1CCCCC1 (stereo not given),logP,[16],2.86
[N-]=[N+]=Nc1ccc(CCN2CCN(c3cccc(C(F)(F)F)c3)CC2)cc1I,logD,[17],3.33
C[C@H]1[C@H](N2CCS(=O)(=O)CC2)O[C@@H]2O[C@@]3(C)CC[C@H]4[C@H](C)CC[C@@H]1[C@@]24OO3,logP,[18],2.49
COc1cc2c(cc1OS(N)(=O)=O)CC[C@@H]1[C@@H]2CC[C@]2(C)[C@@H](OS(N)(=O)=O)CC[C@@H]12,logP,[19],2.25
O=S(=O)(c1ccc(F)cc1)C1CCN(CCc2ccc(F)cc2F)CC1,logP,[20],2.47
COc1cc2c(cc1I)C/C(=C\c1ccc(N(C)C)cc1)C2=O,logD,[21],3.45
CCOC(=O)N(CCN(C(=O)OCC)C(=O)OCC)CCN(C(=O)OCC)C(=O)OCC,logD,[22],2.3
CCN(CC)CCCN1c2ccccc2Sc2ccc(Cl)cc21,logP,[23],6.46
CCC(=O)O[C@H]1CC[C@H]2[C@@H]3CCC4=CC(=O)CC[C@]4(C)[C@H]3CC[C@]12C,logP,[24],3.72
CC1N=C2C3CC(c4ccccc4)CCC3C=CN2C1C (stereo not given),logP,[25],3.9
C[C@]12CCC(=O)C[C@@H]1CC[C@@H]1[C@@H]2CC[C@]2(C)C(=O)CC[C@@H]12,logP,[26],3.6
O=c1c2cc(O)c(O)cc2oc2cc(O)c([C@@H]3O[C@H](CO)[C@@H](O)[C@H](O)[C@H]3O)c(O)c12,logD,[27],0.36
O=C(OCCN1CCOCC1)c1ccccc1Nc1c(Cl)cccc1Cl,logP,[28],2.72
C=CCN1CC[C@@]23CCCC[C@H]2[C@@H]1Cc1ccc(O)cc13,logP,[29],3.48
O=[N+]([O-])c1c2ccccc2c2ccc3cccc4ccc1c2c43,logP,[30],5.44
COC(=O)c1cc(OC)c2c(c1-c1c(CO)cc(OC)c3c1OCO3)OCO2,logP,[31],1.7
O=C(NC(=O)c1c(F)cccc1F)Nc1ccc(Oc2ncc(Cl)cc2Cl)cc1,logP,[32],3.27
Cc1ccc(/C(=C\CN2CCCC2)c2ccccn2)cc1,logP,[33],3.87
O=C(Nc1ccc(F)cc1F)c1cccnc1Oc1cccc(C(F)(F)F)c1,logP,[34],4.49
CCCCN1CCCCC1C(=O)Nc1c(C)cccc1C (stereo not given),logD,[35],3.35
CCc1nn(C)c(C(=O)NCc2ccc(C(C)(C)C)cc2)c1Cl,logP,[36],4.61
CCCCCCCCCC1(c2ccncc2)CCC(=O)NC1=O (stereo not given),logD,[37],4.64
CC(C)(C)NCC(COc1nsnc1N1CCOCC1)OC(=O)C1CCC1 (stereo not given),logP,[38],2.36
CCCc1nc(C[C@H](NC(=O)[C@@H]2CCC(=O)N2)C(=O)N2CCC[C@H]2C(N)=O)c[nH]1,logP,[39],-1.07
